Each structure is given as a SMILES string. Several values for one entry are separate records, joined by “and”; a condition that tells them apart may be missing. Equal entries are not always repeated. Toxic doses and inconclusive results are not listed.

For the test, the system named is P388 leukemia ip, CD2F1 mice, survival T/C. Put plainly: NCI In Vivo Anticancer Drug Screen. Data for tumor model P388 Leukemia (intraperitoneal) in CD2F1 (CDF1) mice. To be noted: endpoint: median survival time, higher = longer survival. In outline:
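Mice carrying the transplanted tumor received test compound or vehicle. Survival was recorded in each group, and the value is the treated-group measurement divided by that of the vehicle-treated control group.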

Where [1] appears, read: dose: 50.0 mg/kg/injection, schedule: Q01DX005 (ip), vehicle: saline with Tween-80.
Setting [2] is: dose: 100.0 mg/kg/injection, schedule: Q01DX005 (ip), vehicle: saline with Tween-80.
[3] abbreviates: dose: 200.0 mg/kg/injection, schedule: Q01DX005 (ip), vehicle: saline with Tween-80.
Setting [4] is: dose: 60.0 mg/kg/injection, schedule: Q01DX005 (ip), vehicle: saline with Tween-80.
The mark [5] stands for this setting: dose: 120.0 mg/kg/injection, schedule: Q01DX005 (ip), vehicle: saline with Tween-80.
[6] abbreviates: dose: 240.0 mg/kg/injection, schedule: Q01DX005 (ip), vehicle: saline with Tween-80.
The mark [7] stands for this setting: dose: 50.0 mg/kg/injection, schedule: Q01DX005 (ip), vehicle: Klucel (hydroxypropylcellulose) (HPC).
[8] abbreviates: dose: 100.0 mg/kg/injection, schedule: Q01DX005 (ip), vehicle: Klucel (hydroxypropylcellulose) (HPC).
Setting [9] is: dose: 200.0 mg/kg/injection, schedule: Q01DX005 (ip), vehicle: Klucel (hydroxypropylcellulose) (HPC).

As to `CC(=O)OC(C)C1CC2C=C(C(N)=O)C1N(Cc1ccccc1)C2` (stereo not drawn), the T/C was 97 % of control (dose: 8.75 mg/kg/injection, schedule: Q01DX005 (ip), vehicle: Klucel (hydroxypropylcellulose) (HPC)); 93 % of control (dose: 17.5 mg/kg/injection, schedule: Q01DX005 (ip), vehicle: Klucel (hydroxypropylcellulose) (HPC)); 97 % of control (dose: 35.0 mg/kg/injection, schedule: Q01DX005 (ip), vehicle: Klucel (hydroxypropylcellulose) (HPC)).
Turning to `CC(=O)OC1CC2C(C)(C)C(=O)C=CC2(C)C2CCC3(C)C(c4ccoc4)OC(=O)C4OC43C12C` (stereo not drawn), the T/C reads like this: (dose: 100.0 mg/kg/injection, schedule: Q01DX009 (ip), vehicle: saline with Tween-80) 90 % of control; (dose: 100.0 mg/kg/injection, schedule: Q04DX003 (ip), vehicle: saline with Tween-80) 109 % of control; (dose: 200.0 mg/kg/injection, schedule: Q01DX009 (ip), vehicle: saline with Tween-80) 95 % of control; (dose: 200.0 mg/kg/injection, schedule: Q04DX003 (ip), vehicle: saline with Tween-80) 100 % of control; (dose: 400.0 mg/kg/injection, schedule: Q01DX009 (ip), vehicle: saline with Tween-80) 100 % of control; (dose: 400.0 mg/kg/injection, schedule: Q04DX003 (ip), vehicle: saline with Tween-80) 90 % of control.
Regarding `COc1cc(N=Nc2ccc(N)nc2N)c(OC)cc1N=Nc1ccc([N+](=O)[O-])cc1`, the T/C was 115 % of control under setting [1], 107 % of control under setting [2] and 107 % of control under setting [3].
Consider `CCC(=O)NC(Cc1ccc(F)cc1)C(=O)O` (stereo not drawn), for which the T/C runs as follows: (dose: 50.0 mg/kg/injection, schedule: Q01DX009 (ip), vehicle: saline) 90 % of control; (dose: 100.0 mg/kg/injection, schedule: Q01DX009 (ip), vehicle: saline) 88 % of control; (dose: 200.0 mg/kg/injection, schedule: Q01DX009 (ip), vehicle: saline) 90 % of control.
Turning to `Cc1cc(C#N)c[n+](C)c1`, the T/C by setting is: (dose: 60.0 mg/kg/injection, schedule: Q01DX005 (ip), vehicle: saline) 108 % of control; (dose: 120.0 mg/kg/injection, schedule: Q01DX005 (ip), vehicle: saline) 95 % of control.
For the molecule `CCOC(=O)C(CCCOC1CCCCO1)(C(=O)CC)c1ccccc1` (stereo not drawn) (tested in a mixture with another compound), the T/C by setting is: (dose: 50.0 mg/kg/injection, schedule: Q01DX009 (ip), vehicle: acetone) 111 % of control; (dose: 100.0 mg/kg/injection, schedule: Q01DX009 (ip), vehicle: acetone) 103 % of control; (dose: 200.0 mg/kg/injection, schedule: Q01DX009 (ip), vehicle: acetone) 107 % of control.
Take `CCOC(=O)c1c(OC)c(-c2ccccc2)c(=O)n2c3ccccc3n(C)c12`: the T/C by setting is: under setting [4], 95 % of control; under setting [5], 88 % of control.
In the case of `CCCCCC(CN(C)C)C(=O)CC(SCC)c1ccccc1` (stereo not drawn), the T/C (dose: 12.5 mg/kg/injection, schedule: Q01DX009 (ip), vehicle: water) was 111 % of control and the T/C (dose: 25.0 mg/kg/injection, schedule: Q01DX009 (ip), vehicle: water) is 100 % of control.
Consider `CCc1nc(N)nc(N)c1-c1ccc(NCCCN)c([N+](=O)[O-])c1`, for which the T/C reads like this: (dose: 30.0 mg/kg/injection, schedule: Q01DX005 (ip), vehicle: saline with Tween-80) 106 % of control; under setting [4], 108 % of control and 110 % of control.
Take `C/C(C(=O)c1ccccc1)=C1/NC(C)(C)CO1`: the T/C reads like this: under setting [4], 101 % of control; under setting [5], 103 % of control; under setting [6], 101 % of control.
Regarding `C[CH2][Sn]([CH2]C)([O]c1cccccc1=O)[O]c1cccccc1=O`, the T/C (dose: 100.0 mg/kg/injection, schedule: Q01DX001 (ip), vehicle: Klucel (hydroxypropylcellulose) (HPC)) is 116 % of control; the T/C (dose: 200.0 mg/kg/injection, schedule: Q01DX001 (ip), vehicle: Klucel (hydroxypropylcellulose) (HPC)) was 110 % of control; the T/C (dose: 400.0 mg/kg/injection, schedule: Q01DX001 (ip), vehicle: Klucel (hydroxypropylcellulose) (HPC)) is 110 % of control.
In the case of `COc1ccc2nc3cc(Cl)ccc3c(Nc3ccc(NC(C)=O)cc3)c2n1`, the T/C by setting is: (dose: 6.25 mg/kg/injection, schedule: Q01DX009 (ip), vehicle: other) 106 % of control; (dose: 12.5 mg/kg/injection, schedule: Q01DX009 (ip), vehicle: other) 102 % of control; (dose: 25.0 mg/kg/injection, schedule: Q01DX009 (ip), vehicle: other) 100 % of control; (dose: 50.0 mg/kg/injection, schedule: Q01DX009 (ip), vehicle: other) 96 % of control; (dose: 100.0 mg/kg/injection, schedule: Q01DX009 (ip), vehicle: other) 99 % of control.
As for `O=C(CCc1ccccc1)OC/C=C/COC(=O)c1ccccc1`, the T/C is, setting by setting: (dose: 50.0 mg/kg/injection, schedule: Q01DX009 (ip), vehicle: Klucel (hydroxypropylcellulose) (HPC)) 102 % of control; (dose: 100.0 mg/kg/injection, schedule: Q01DX009 (ip), vehicle: Klucel (hydroxypropylcellulose) (HPC)) 111 % of control; (dose: 200.0 mg/kg/injection, schedule: Q01DX009 (ip), vehicle: Klucel (hydroxypropylcellulose) (HPC)) 106 % of control.
With `O=S(=O)(Nc1cccc(C(F)(F)F)c1)c1ccc(F)cc1`, the T/C is 94 % of control under setting [4], 100 % of control under setting [5] and 93 % of control under setting [6].
As for `COc1ccc(/C=C/c2ccc3ccccc3[n+]2C)c(OC)c1OC`, the T/C is, setting by setting: (dose: 0.63 mg/kg/injection, schedule: Q01DX009 (ip), vehicle: Klucel (hydroxypropylcellulose) (HPC)) 107 % of control; (dose: 1.25 mg/kg/injection, schedule: Q01DX009 (ip), vehicle: Klucel (hydroxypropylcellulose) (HPC)) 110 % of control; (dose: 5.0 mg/kg/injection, schedule: Q01DX009 (ip), vehicle: Klucel (hydroxypropylcellulose) (HPC)) 107 % of control.
Consider `COc1cc([C@@H]2c3cc4c(c(O)c3C[C@H]3COC(=O)[C@@H]32)OCO4)cc(OC)c1O`, for which the T/C is, setting by setting: (dose: 0.25 mg/kg/injection, schedule: Q01DX009 (ip), vehicle: suspension in saline) 121 % of control; (dose: 1.0 mg/kg/injection, schedule: Q01DX009 (ip), vehicle: saline) 150 % of control; (dose: 1.0 mg/kg/injection, schedule: Q01DX009 (ip), vehicle: suspension in saline) 99 % of control.
On to `COC(=O)/C(=C/c1ccccc1)N=[N+]=[N-]`, for which the T/C runs as follows: under setting [4], 107 % of control; under setting [5], 110 % of control; under setting [6], 117 % of control.
In the case of `CN=C(N)N/N=C/c1c2ccccc2c(C)c2ccccc12`, the T/C runs as follows: (dose: 25.0 mg/kg/injection, schedule: Q04DX002 (ip), vehicle: saline) 119 % of control; (dose: 50.0 mg/kg/injection, schedule: Q04DX002 (ip), vehicle: saline) 115 % of control.
As to `CCOc1ccc(C(C)c2cc3c(cc2OCC)OCO3)c(C)c1` (stereo not drawn), the T/C under setting [7] is 109 % of control, the T/C under setting [8] is 103 % of control and the T/C under setting [9] is 112 % of control.
For `O=c1oc2cccc(O)c2s1`, the T/C was 97 % of control (dose: 12.5 mg/kg/injection, schedule: Q01DX001 (ip), vehicle: saline); 99 % of control (dose: 25.0 mg/kg/injection, schedule: Q01DX001 (ip), vehicle: saline); 106 % of control (dose: 50.0 mg/kg/injection, schedule: Q01DX001 (ip), vehicle: Klucel (hydroxypropylcellulose) (HPC)); 98 % of control (dose: 50.0 mg/kg/injection, schedule: Q01DX001 (ip), vehicle: saline).
With `COc1ccc(O)c(C(C)=O)c1`, the T/C runs as follows: under setting [7], 102 % of control; under setting [8], 100 % of control; under setting [9], 98 % of control.
Consider `NC(=S)N/N=C/C=C/c1ccccc1`, for which the T/C reads like this: (dose: 25.0 mg/kg/injection, schedule: Q04DX002 (ip), vehicle: Klucel (hydroxypropylcellulose) (HPC)) 96 % of control; (dose: 50.0 mg/kg/injection, schedule: Q04DX002 (ip), vehicle: Klucel (hydroxypropylcellulose) (HPC)) 105 % of control; (dose: 100.0 mg/kg/injection, schedule: Q04DX002 (ip), vehicle: Klucel (hydroxypropylcellulose) (HPC)) 101 % of control.
As for `CCCCN(CCCC)CC(N=O)c1cc(-c2ccc(Cl)c(Cl)c2)nc2c(Cl)cc(Cl)cc12` (stereo not drawn), the T/C by setting is: under setting [1], 108 % of control; under setting [2], 111 % of control; under setting [3], 107 % of control.
For `CCCCc1c(O)c(N=NC(N)=S)c2ccccc2c1O`, in that order: 95 % of control, 94 % of control and 91 % of control.

The record behind these values is PubChem BioAssay AID330 (DTP/NCI, 2004).
